# In article PMC7139405, “Real-Time 3D Imaging and Inhibition Analysis of Various Amyloid Aggregations Using Quantum Dots” (International Journal of Molecular Sciences, 2020):
# Key:
# [1] = molecular target: T1, Amyloid β (Aβ42) (Homo sapiens, UniProt P05067); assay: aggregation inhibition of isolated peptide, quantum-dot fluorescence imaging (MSHTS); assay type: biochemical
# T1 construct: gene APP
# Source text: aggregation inhibition of isolated peptide, quantum-dot fluorescence imaging (MSHTS) on Amyloid β (Aβ42) | RA inhibited the aggregation of Aβ and α-synuclein proteins in vitro in a dose-dependent manner
# [2] = molecular target: T2, α-synuclein (Homo sapiens, UniProt P37840); assay: aggregation inhibition of purified protein, quantum-dot fluorescence imaging (MSHTS); assay type: biochemical
# T2 construct: gene SNCA
# T1 sequence (P05067 672-713): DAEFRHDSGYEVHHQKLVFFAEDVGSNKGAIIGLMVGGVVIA
smiles,measurement,setting,value
"O=C(/C=C/c1ccc(O)c(O)c1)O[C@H](Cc1ccc(O)c(O)c1)C(=O)O [RA, rosmarinic acid]",EC50,[1],20.6 µM
same,EC50,[2],2.1 µM
